Results from US20260297042A1, “BIARYLAMIDE DERIVATIVES AND THEIR USE AS PKMYT1 INHIBITORS” (CANCER RESEARCH TECHNOLOGY LIMITED, priority 2023, published 2026).

Tests used:
Human PKMYT1 = molecular target: T1, Human PKMYT1 (Homo sapiens, UniProt Q99640); assay: PKMYT1 biochemical ADP-Glo enzymatic assay; conditions: ADP-Glo
T1 construct: Human PKMYT1 75-362 was cloned as a TEV cleavable 6xHis fusion; 6xHis (TEV cleavable) (cleaved yes); made in house; host or cells: bacterial cells
T1 sequence (Q99640 75-362): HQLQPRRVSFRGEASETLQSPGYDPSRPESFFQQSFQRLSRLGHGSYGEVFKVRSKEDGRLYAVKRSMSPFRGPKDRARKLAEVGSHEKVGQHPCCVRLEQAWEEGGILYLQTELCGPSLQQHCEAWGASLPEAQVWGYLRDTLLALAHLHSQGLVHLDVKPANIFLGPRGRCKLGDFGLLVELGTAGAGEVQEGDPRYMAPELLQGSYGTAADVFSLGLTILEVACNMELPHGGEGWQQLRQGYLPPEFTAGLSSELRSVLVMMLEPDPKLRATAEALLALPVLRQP
In short: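 IC50 values come from 10-point 3-fold series, with replicates required within 3-fold and r2 >0.9. ADP formed by PKMYT1 intrinsic ATPase (500 uM ATP, 60 min, 26° C.) was quantified by ADP-Glo luminescence. The enzyme was the TEV-cleaved kinase domain 75-362 at 15 nM, in HEPES pH 7.5 buffer.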

WEE1 = molecular target: T2, WEE1 (Homo sapiens, UniProt P30291); assay: Selectivity versus WEE1 assay (ADP-Glo enzymatic assay); assay type: biochemical; conditions: for IC50: ADP-Glo; for PKMYT1 vs. WEE1 selectivity: fold difference in selectivity for PKMYT1 over WEE1
T2 construct: purchased Thermo Fisher PR7373A
T2 sequence (P30291 whole entry): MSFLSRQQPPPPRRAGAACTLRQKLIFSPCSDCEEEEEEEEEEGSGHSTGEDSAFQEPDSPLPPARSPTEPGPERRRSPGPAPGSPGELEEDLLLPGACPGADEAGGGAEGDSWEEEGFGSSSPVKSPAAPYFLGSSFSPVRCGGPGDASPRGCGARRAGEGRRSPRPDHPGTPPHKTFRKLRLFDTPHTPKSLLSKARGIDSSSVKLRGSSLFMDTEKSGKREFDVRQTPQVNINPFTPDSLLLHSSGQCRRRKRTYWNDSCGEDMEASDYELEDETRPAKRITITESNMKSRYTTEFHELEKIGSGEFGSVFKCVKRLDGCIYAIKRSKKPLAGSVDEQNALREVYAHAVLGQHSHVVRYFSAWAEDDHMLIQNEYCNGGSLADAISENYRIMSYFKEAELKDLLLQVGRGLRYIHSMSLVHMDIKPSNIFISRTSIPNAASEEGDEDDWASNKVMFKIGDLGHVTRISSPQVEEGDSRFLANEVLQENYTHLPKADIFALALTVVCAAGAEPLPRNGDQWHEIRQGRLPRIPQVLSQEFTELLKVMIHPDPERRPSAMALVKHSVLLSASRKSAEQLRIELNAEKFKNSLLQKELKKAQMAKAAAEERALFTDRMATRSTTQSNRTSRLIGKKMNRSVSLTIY
In short: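 ADP-Glo luminescent read-out after a 60-min, 26 °C kinase reaction of 15 nM WEE1 with 30 µM ATP, in HEPES pH 7.5 buffer containing MgCl2, EGTA, Brij-35 and 1% DMSO. IC50 accepted only when replicate values agree within 3-fold and curve fit r2 exceeds 0.9.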

OVCAR 3 cells = assay: Cancer cell line proliferation assay, ATP-based cell viability (Cell Titre Glow), OVCAR 3 (CCNE1-amplified); conditions: KYSE30 (normal CCNE1) GI50 vs. OVCAR 3 (CCNE1-amplified) GI50
In short: (§1)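 GI50 values, the concentrations halving cell growth, were derived from ATP-based luminescence (Cell Titre Glo) after PKMYT1 inhibitor exposure. Cells tested were OVCAR 3, an ovarian line with amplified CCNE1, and KYSE-30, which has normal CCNE1.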

KYSE-30 cells = assay: Cancer cell line proliferation assay, ATP-based cell viability (Cell Titre Glow), KYSE-30 (normal CCNE1); conditions: Homo sapiens, KYSE-30 cells (normal CCNE1), concentration that achieves 50% cell growth proliferation inhibition, read-out: KYSE30 Gl50
In short: as §1

[1] = molecular target: T3, Cellular PKMYT1 Biomarker CDK1 pT14 (Homo sapiens, UniProt Q99640); assay: Inhibition of cellular PKMYT1 biomarker CDK1 pT14 in OVCAR 3 cells (immunoblot); assay type: cell-based; conditions: 20 hours incubation
T3 construct: read-out CDK1 phospho-T14 immunoblot
T3 sequence (Q99640 1-499): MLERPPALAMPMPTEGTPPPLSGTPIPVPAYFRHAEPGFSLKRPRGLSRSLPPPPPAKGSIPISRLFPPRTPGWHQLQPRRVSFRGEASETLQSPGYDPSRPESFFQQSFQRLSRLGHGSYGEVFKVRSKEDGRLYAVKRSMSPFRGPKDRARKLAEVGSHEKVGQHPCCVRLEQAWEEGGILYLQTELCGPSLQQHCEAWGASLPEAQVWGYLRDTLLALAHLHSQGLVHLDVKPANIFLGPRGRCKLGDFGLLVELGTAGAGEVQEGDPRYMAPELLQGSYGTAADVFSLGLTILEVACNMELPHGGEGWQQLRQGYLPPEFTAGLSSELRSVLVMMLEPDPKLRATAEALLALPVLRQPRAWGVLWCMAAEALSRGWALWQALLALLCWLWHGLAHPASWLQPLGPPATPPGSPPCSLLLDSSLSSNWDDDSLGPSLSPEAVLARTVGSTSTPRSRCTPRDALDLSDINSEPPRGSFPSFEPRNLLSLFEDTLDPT
Experimental: To determine compound PKMYT1 IC50 in a cellular assay, OVCAR 3 cells were incubated at 37° C. in 5% CO2 atmosphere. The cells were maintained in RPMI medium supplemented with 20% foetal bovine serum, 1X non essential amino acids, 1 mM sodium pyruvate, Glutamax and insulin. Cells were seeded into 12-well plates at low density (50,000-200,000 cells per well), grown to confluence (~350-400,000 cells per well) and then treated with a range of concentrations of PKMYT1 inhibitors. The cells were incubated 20 hours and then harvested into 1X Laemmli Sample Buffer (BIORAD) without 2-mercaptoethanol, heated to 95° C. for 5 min, centrifuged and sonicated using a microprobe for 15 sec, 21W to shear the DNA.
The samples were analysed by immunoblot on a Jess Automated Western Blot System (BioTechne). The samples were separated using the 12-230 kDa Separation Module (BioTechne,) and blotted using an anti-CDK1 phospho T14 antibody (Abcam, #ab58509) and an anti-vinculin antibody (Abcam, #126002). Specific binding was detected by fluorescence using the Anti-Rabbit Detection Module (BioTechne, #DM-001), quantified using Compass for Simple Western software, and IC50 values were calculated by regression analysis in GraphPad Prism.

[2] = PKMYT1 kinase domain 15 nM, banded values

Compound | IC50 (Human PKMYT1; [2]) | IC50 (WEE1; WEE1 15 nM, banded values) | PKMYT1 vs. WEE1 selectivity (WEE1; banded) | Selectivity ratio KYSE30 Gl50 vs. OVCAR3 Gl50 (OVCAR 3 cells) | GI50 (KYSE-30 cells) | IC50 [1] | IC50 (Human PKMYT1; 15 nM PKMYT1 kinase domain, 500 µM ATP, 60 minutes at 26° C., banded) | IC50 (WEE1; 15 nM WEE1, 60 minutes at 26° C., banded) | PKMYT1 vs. WEE1 selectivity (WEE1; banded, ">N" = at least in this band but could be higher)
Cc1ccc(O)c(C)c1NC(=O)c1cnc(Nc2nn(CCF)cc2Cl)s1 [BAA-582, 2-((4-chloro-1-(2-fluoroethyl)-1H-pyrazol-3-yl)amino)-N-(3-hydroxy-2,6-dimethylphenyl)thiazole-5-carboxamide] | < 50 nM | 1000 to 11000 nM | X (100-<1000 fold) | Y (>20 fold) | 500 to 5000 nM | < 100 nM | – | – | –
Cc1ccc(O)c(C)c1NC(=O)c1cnc(Nc2ccc(N3CCC(F)(F)CC3)cn2)s1 [BAA-308, 2-((5-(4,4-difluoropiperidin-1-yl)pyridin-2-yl)amino)-N-(3-hydroxy-2,6-dimethylphenyl)thiazole-5-carboxamide] | – | – | – | X (3-20 fold) | 500 to 5000 nM | < 100 nM | 50 to 1000 nM | > 11000 nM | X (100-<1000 fold)
Cc1ccc(O)c(C)c1NC(=O)c1cnc(Nc2nn(CCF)cc2Br)s1 [BAA-585, 2-((4-bromo-1-(2-fluoroethyl)-1H-pyrazol-3-yl)amino)-N-(3-hydroxy-2,6-dimethylphenyl)thiazole-5-carboxamide] | < 50 nM | 1000 to 11000 nM | X (100-<1000 fold) | Y (>20 fold) | 500 to 5000 nM | < 100 nM | – | – | –
CCc1cn(CC(F)F)nc1Nc1ncc(C(=O)Nc2c(C)ccc(O)c2C)s1 [BAA-589, 2-((1-(2,2-difluoroethyl)-4-ethyl-1H-pyrazol-3-yl)amino)-N-(3-hydroxy-2,6-dimethylphenyl)thiazole-5-carboxamide] | < 50 nM | 1000 to 11000 nM | X (100-<1000 fold) | Y (>20 fold) | > 5000 nM | < 100 nM | – | – | –
Cc1ccc(-c2cnn(C)c2)nc1Nc1ncc(C(=O)Nc2c(C)ccc(O)c2C)s1 [BAA-396, N-(3-hydroxy-2,6-dimethylphenyl)-2-((3-methyl-6-(1-methyl-1H-pyrazol-4-yl)pyridin-2-yl)amino)thiazole-5-carboxamide] | < 50 nM | 1000 to 11000 nM | X (100-<1000 fold) | Y (>20 fold) | 500 to 5000 nM | < 100 nM | – | – | –
Cc1ccnc(Nc2ncc(C(=O)Nc3c(C)ccc(O)c3C)s2)c1 [BAA-422, N-(3-hydroxy-2,6-dimethylphenyl)-2-((4-methylpyridin-2-yl)amino)thiazole-5-carboxamide] | < 50 nM | 1000 to 11000 nM | X (100-<1000 fold) | Y (>20 fold) | 500 to 5000 nM | < 100 nM | – | – | –
Cc1ccc(O)c(C)c1NC(=O)c1cnc(Nc2cccc(-c3cccnc3)n2)s1 [BAA-397, 2-([2,3′-bipyridin]-6-ylamino)-N-(3-hydroxy-2,6-dimethylphenyl)thiazole-5-carboxamide] | < 50 nM | 1000 to 11000 nM | W (10-<100 fold) | Y (>20 fold) | 500 to 5000 nM | < 100 nM | – | – | –
